Literature values as cited in patent US20170119792A1, “METHODS AND COMPOSITIONS FOR DERMATOLOGICAL USE COMPRISING CLOBETASOL AND HALOBETASOL AND BIOPOLYMERS” (APEX LABORATORIES PRIVATE LIMITED, priority 2015, published 2017).

solubility in water | SMILES
insoluble in water | CCC(=O)O[C@]1(C(=O)CCl)[C@@H](C)C[C@H]2[C@@H]3C[C@H](F)C4=CC(=O)C=C[C@]4(C)[C@@]3(F)[C@@H](O)C[C@@]21C [Halobetasol propionate, 21-chloro-6α, 9-difluoro-11β, 17-dihydroxy-16β-methylpregna-1,4-diene-3, 20-dione17-propionate]
insoluble in water | CCC(=O)O[C@]1(C(=O)CCl)[C@@H](C)C[C@H]2[C@@H]3CCC4=CC(=O)C=C[C@]4(C)[C@@]3(F)[C@@H](O)C[C@@]21C [Clobetasol propionate, (11β, 16β)-21-chloro-9-fluoro-11-hydroxy-16-methyl-17-(1-oxopropoxy)-pregna-1,4-diene-3, 20-dione]
